According to patent US11236129B2, “IL-17A binding peptides and medical uses thereof” (Dompe' Farmaceutici S.P.A., priority 2018, dated 2022):
Where two headings read alike, the source gives them in different places. Residues, ends and D or L forms follow the SMILES beside them.

Tests used:
[1] = biological target: IL-17RA/IL17RC dimerization induced by IL-17A (Homo sapiens, UniProt Q16552); assay: IL-17RA/IL17RC dimerization assay in response to IL-17A (PathHunter Cytokine Receptor Assay); assay type: cell-based; conditions: IL-17A at EC80; read-out: IC50 in IL-17RA/IL7RC dimerization assay
Method in brief: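 PathHunter cells with IL-17RA and IL-17RC tagged for β-galactosidase complementation were preincubated 60 min with peptide (1% vehicle). IL-17A was then added at EC80 for 6–16 h at 37 °C, and chemiluminescence was read. Inhibition is relative to the EC80 and vehicle controls.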

[2] = Isoelectric point, log D and log P (SiriusT3); assay type: physicochemical; conditions: for IP (isoelectric point): 25±1° C., 0.15 M KCl; for Log D (7.4): pH 7.4
Method: The main physicochemical properties (Isoelectric point (IP), log D (7.4) and log P) of the peptides of Table 8 below were determined by using the SiriusT3 apparatus (Sirius Analytical Instruments Ltd., East Sussex, UK) equipped with an Ag/AgCl double junction reference pH electrode, a Sirius D-PAS spectrometer and a turbidity sensing device. […] An overhead stirrer was used and a temperature probe (Peltier controller) monitored the temperature during the course of the titration. The titration experiments were conducted in 0.15 M KCl Ionic Strength Adjusted solution (ISA water) under a nitrogen atmosphere at a temperature of 25±1° C. All tests were performed using standardized 0.5 M KOH and 0.5 M HCl as titration reagents, for the partition coefficient tests a saturated Octanol in ISA water (5% of ISA water) was used as partition solvent. The pKas were determined by potentiometric method by pH-metric titration. The powder (around 0.5 mg) was dissolved in 1.5 ml of ISA water and the titration was performed in triplicate in the pH range 2.0−12.0.

[3] = assay type: physicochemical; conditions: pH 7.8
Method: Each lyophilized peptide was weighed in an amber vial. A calculated volume of phosphate buffered solution at pH 7.8 was added in order to directly obtain 10 mM Stock Solutions. The recovered suspensions were stirred for 30 minutes by orbital shaker incubator at 37° C. Subsequent dilutions were performed to obtain the more diluted stock solutions for the less soluble compounds.
In order to evaluate the stability and the solubility, all the stock solutions were stored at 25° C. The title was evaluated by UHPLC-MS analysis in comparison with the standard solutions, at 3 time points: T0, 3 days, 1 week.
The chromatographic profile was evaluated for the quantitative assay while the MS spectra were detected as support in the stability studies.
Each peptide was weighed and directly diluted at 100 μM with the phosphate buffer at pH 7.8. The solutions were stirred for 5 minutes by vortex and heated at 37° C. for 20 minutes. The obtained standard solution was stored at 25° C. in the dark under controlled temperature.
A portion of the stock solutions was collected in an amber vial and diluted to 100 μM by phosphate buffer at pH 7.8 (dilution factor, 1:100).
Reversed-phase UHPLC was performed operating at a flow rate of 0.3 ml/min with a Luna Omega Polar C18 column ([…] 1.6 μm, 2.1×100 mm). Solvent A was 0.5% Formic Acid in water and solvent B was 0.5% Formic Acid in acetonitrile. First, samples were loaded onto the column and washed isocratically at 10% B for 3 min. Then, a gradient of 10-95% B was run over 22 min, held at 95% for 2 min, and then decreased to 10% over 1 min and held, for the pressure stabilization, for 5 min. UV Absorption was monitored by DAD (220-400 nm). ESI-MS ion trap was used for the monitoring of TIC.

[4] = octanol/ISA water, read-out: logP
[5] = pH 7.4, pH 7.4, octanol/ISA water, read-out: Log D (7.4)

Sequence of IL-17RA/IL17RC dimerization induced by IL-17A (Q16552 24-155): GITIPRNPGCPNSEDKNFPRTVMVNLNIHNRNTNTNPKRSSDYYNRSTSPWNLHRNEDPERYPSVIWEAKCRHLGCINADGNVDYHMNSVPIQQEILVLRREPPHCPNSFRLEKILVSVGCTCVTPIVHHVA

Row | Compound | IC50 [1] [nM] | IP (isoelectric point) [2] | logP ([2]; logP) | logD ([2]; pH 7.4, Log D (7.4)) | solubility [3] [mM] | logP [2, 4] | logD [2, 5] | logP [2] | Log D (7.4) [2]
1 | CC[C@H](C)[C@H](NC(C)=O)C(=O)N[C@@H](Cc1c[nH]cn1)C(=O)N[C@H](C(=O)N[C@H](C(=O)N[C@H](C(=O)N1CCC[C@H]1C(=O)N[C@@H](C)C(=O)N[C@@H](CC(=O)O)C(=O)N[C@@H](CC(C)C)C(=O)N[C@@H](Cc1c[nH]c2ccccc12)C(=O)N[C@@H](CC(=O)O)C(=O)N[C@@H](Cc1c[nH]c2ccccc12)C(=O)N[C@H](C(=O)N[C@@H](CC(N)=O)C(=O)N[C@@H](CCC(=O)O)C(N)=O)[C@@H](C)CC)[C@@H](C)CC)[C@@H](C)O)C(C)C [SEQ ID NO: 12, IHVTIPADLWDWINE] (Ac-IHVTIPADLWDWINE-NH2) | < 200 | 3.66 | 1.31 | -5.24 | ≥ 0.01 |  |  |  | 
2 | CC[C@H](C)[C@H](NC(=O)[C@H](Cc1c[nH]c2ccccc12)NC(=O)[C@H](CCC(=O)O)NC(=O)[C@H](Cc1ccc(O)cc1)NC(=O)[C@H](CC(C)C)NC(=O)[C@H](CC(=O)O)NC(=O)[C@H](C)NC(=O)[C@@H]1CCCN1C(=O)[C@@H](NC(=O)[C@@H](NC(=O)[C@@H](NC(=O)[C@H](CCSC)NC(=O)[C@@H](NC(C)=O)C(C)C)C(C)C)[C@@H](C)O)[C@@H](C)CC)C(=O)N[C@@H](CC(N)=O)C(=O)N[C@@H](CCCCN)C(N)=O [SEQ ID NO: 16] (Ac-VMVTIPADLYEWINK-NH2) | < 400 | 5.19 |  |  | > 10 | 0.13 | 0.24 |  | 
3 | CC[C@H](C)[C@H](NC(C)=O)C(=O)N[C@@H](Cc1c[nH]cn1)C(=O)N[C@H](C(=O)N[C@H](C(=O)N[C@H](C(=O)N1CCC[C@H]1C(=O)N[C@@H](C)C(=O)N[C@@H](CC(=O)O)C(=O)N[C@@H](CC(C)C)C(=O)N[C@@H](Cc1c[nH]c2ccccc12)C(=O)N[C@@H](CC(=O)O)C(=O)N[C@@H](Cc1c[nH]c2ccccc12)C(=O)N[C@H](C(=O)N[C@@H](CCCNC(=N)N)C(=O)N[C@@H](CCCCN)C(N)=O)[C@@H](C)CC)[C@@H](C)CC)[C@@H](C)O)C(C)C [SEQ ID NO: 9] (Ac-IHVTIPADLWDWIRK-NH2) | < 300 | 8.28 | -0.53 | -1.08 | > 10 |  |  |  | 
4 | CC[C@H](C)[C@H](NC(=O)[C@H](Cc1c[nH]c2ccccc12)NC(=O)[C@H](CCC(=O)O)NC(=O)[C@H](Cc1ccc(O)cc1)NC(=O)[C@H](CC(C)C)NC(=O)[C@H](CC(=O)O)NC(=O)[C@H](C)NC(=O)[C@@H]1CCCN1C(=O)[C@@H](NC(=O)[C@@H](NC(=O)[C@@H](NC(=O)[C@H](CCSC)NC(=O)[C@@H](NC(=O)[C@H](C)NC(=O)[C@H](CCCCN)NC(=O)[C@H](C)NC(=O)[C@H](C)NC(=O)[C@H](CCCCN)NC(=O)[C@H](CCCCN)NC(=O)[C@H](CCCNC(=N)N)NC(=O)[C@H](C)NC(C)=O)C(C)C)C(C)C)[C@@H](C)O)[C@@H](C)CC)C(=O)N[C@@H](CCC(=O)O)C(=O)N[C@@H](CCC(=O)O)C(N)=O [SEQ ID NO: 31] (Ac-ARKKAAKAVMVTIPADLYEWIEE-NH2) | < 1000 | 12.5 |  |  | > 10 | -4.9 | -3.59 |  | 
5 | CC[C@H](C)[C@H](NC(=O)[C@@H](NC(=O)[C@H](Cc1ccccc1)NC(=O)[C@H](Cc1c[nH]cn1)NC(=O)[C@@H](NC(C)=O)C(C)C)[C@@H](C)O)C(=O)N1CCC[C@H]1C(=O)N[C@@H](C)C(=O)N[C@@H](CC(=O)O)C(=O)N[C@@H](CC(C)C)C(=O)N[C@@H](Cc1c[nH]c2ccccc12)C(=O)N[C@@H](CCC(=O)O)C(=O)N[C@@H](Cc1c[nH]c2ccccc12)C(=O)N[C@H](C(=O)N[C@@H](CCCNC(=N)N)C(=O)N[C@@H](CCCNC(=N)N)C(N)=O)C(C)C [SEQ ID NO: 112] (Ac-VHFTIPADLWEWVRR-NH2) | < 500 | 8.99 |  |  | < 0.05 | -4.76 |  |  | 
6 | CC[C@H](C)[C@H](NC(C)=O)C(=O)N[C@@H](Cc1c[nH]cn1)C(=O)N[C@H](C(=O)N[C@H](C(=O)N[C@H](C(=O)N1CCC[C@H]1C(=O)N[C@@H](C)C(=O)N[C@@H](CC(=O)O)C(=O)N[C@@H](CC(C)C)C(=O)N[C@@H](Cc1ccc(O)cc1)C(=O)N[C@@H](CCC(=O)O)C(=O)N[C@@H](Cc1c[nH]c2ccccc12)C(=O)N[C@H](C(=O)N[C@@H](CC(N)=O)C(=O)N[C@@H](CCCCN)C(N)=O)[C@@H](C)CC)[C@@H](C)CC)[C@@H](C)O)C(C)C [SEQ ID NO: 7] (Ac-IHVTIPADLYEWINK-NH2) |  | 5.19 |  |  | > 10 |  |  | −0.86 | −1.41
7 | CC[C@H](C)[C@H](NC(C)=O)C(=O)N[C@@H](Cc1c[nH]cn1)C(=O)N[C@H](C(=O)N[C@H](C(=O)N[C@H](C(=O)N1CCC[C@H]1C(=O)N[C@@H](C)C(=O)N[C@@H](CC(=O)O)C(=O)N[C@@H](CC(C)C)C(=O)N[C@@H](Cc1ccc(O)cc1)C(=O)N[C@@H](CCC(=O)O)C(=O)N[C@@H](Cc1c[nH]c2ccccc12)C(=O)N[C@H](C(=O)N[C@@H](CC(N)=O)C(=O)N[C@@H](CCCCN)C(N)=O)[C@@H](C)CC)[C@@H](C)CC)[C@@H](C)O)C(C)C [SEQ ID NO: 13] (Ac-IHVTIPADLYEWINK-NH2) |  | 6.06 |  |  | >10 |  |  | −0.49 | 1.15

Now from value to compound:

Row | IC50 [1] [nM] | IP (isoelectric point) [2] | logP ([2]; logP) | logD ([2]; pH 7.4, Log D (7.4)) | solubility [3] [mM] | logP [2, 4] | logD [2, 5] | logP [2] | Log D (7.4) [2] | Compound
8 | < 200 | 5.14 | -5.12 | -4.06 | > 10 |  |  |  |  | CC[C@H](C)[C@H](NC(C)=O)C(=O)N[C@@H](Cc1c[nH]cn1)C(=O)N[C@H](C(=O)N[C@H](C(=O)N[C@H](C(=O)N1CCC[C@H]1C(=O)N[C@@H](C)C(=O)N[C@@H](CC(=O)O)C(=O)N[C@@H](CC(C)C)C(=O)N[C@@H](Cc1c[nH]c2ccccc12)C(=O)N[C@@H](CC(=O)O)C(=O)N[C@@H](Cc1c[nH]c2ccccc12)C(=O)N[C@H](C(=O)N[C@@H](CC(N)=O)C(=O)N[C@@H](CCCCN)C(N)=O)C(C)C)[C@@H](C)CC)[C@@H](C)O)C(C)C [SEQ ID NO: 8] (Ac-IHVTIPADLWDWVNK-NH2)
9 | < 500 | 8.99 |  |  | < 0.05 | -0.21 | -3.59 |  |  | CC(=O)N[C@H](C(=O)N[C@@H](Cc1c[nH]cn1)C(=O)N[C@H](C(=O)N[C@H](C(=O)N[C@@H](Cc1ccccc1)C(=O)N1CCC[C@H]1C(=O)N[C@@H](C)C(=O)N[C@@H](CC(=O)O)C(=O)N[C@@H](CC(C)C)C(=O)N[C@@H](Cc1c[nH]c2ccccc12)C(=O)N[C@@H](CCC(=O)O)C(=O)N[C@@H](Cc1c[nH]c2ccccc12)C(=O)N[C@H](C(=O)N[C@@H](CCCNC(=N)N)C(=O)N[C@@H](CCCNC(=N)N)C(N)=O)C(C)C)[C@@H](C)O)C(C)C)C(C)C [SEQ ID NO: 114] (Ac-VHVTFPADLWEWVRR-NH2)
10 |  | 5.14 |  |  | > 10 | -5.88 | -3.46 |  |  | CC[C@H](C)[C@H](NC(=O)[C@H](Cc1c[nH]c2ccccc12)NC(=O)[C@H](CCC(=O)O)NC(=O)[C@H](Cc1ccc(O)cc1)NC(=O)[C@H](CC(C)C)NC(=O)[C@H](CC(=O)O)NC(=O)[C@H](C)NC(=O)[C@@H]1CCCN1C(=O)[C@@H](NC(=O)[C@@H](NC(=O)[C@@H](NC(=O)[C@H](CCSC)NC(=O)[C@@H](NC(=O)CNC(=O)[C@H](C)NC(=O)CNC(=O)[C@@H]1CCCN1C(=O)[C@@H](NC(=O)CNC(=O)[C@H](C)NC(=O)CNC(=O)[C@@H]1CCCN1C(=O)[C@@H](NC(C)=O)C(C)C)C(C)C)C(C)C)C(C)C)[C@@H](C)O)[C@@H](C)CC)C(=O)N[C@@H](CCC(=O)O)C(=O)N[C@@H](CCC(=O)O)C(N)=O [SEQ ID NO: 38]
